# Tested on: 889142-216-R-J1-PDC complex spheroid viability
# Assay: Anticancer human tumor 889142-216-R-J1-PDC patient-derived bladder carcinoma cell line growth inhibition [POLQ]
# Conditions: for IC50: curve of first compound; for viability, T/C: stronger effect = lower value
# Summary of the method: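 Three-cell-type spheroids modelling solid tumor plus stroma served as the readout system; POL inhibitors were tested individually and in combination, concentration ranges set by clinical Cmax where known.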
# [1] = second compound 0.0316 µM, first compound 0.0316 µM
# [2] = second compound 0.0316 µM, first compound 0.1 µM
# [3] = second compound 0.0316 µM, first compound 0.316 µM
# [4] = second compound 0.0316 µM, first compound 1 µM
# [5] = second compound 0.0316 µM, first compound 3.16 µM
# [6] = second compound 0.0316 µM, first compound 10 µM
# [7] = second compound 0.1 µM, first compound 0.0316 µM
# [8] = second compound 0.1 µM, first compound 0.1 µM
# [9] = second compound 0.1 µM, first compound 0.316 µM
# [10] = second compound 0.1 µM, first compound 1 µM
# [11] = second compound 0.1 µM, first compound 3.16 µM
# [12] = second compound 0.1 µM, first compound 10 µM
# [13] = second compound 0.316 µM, first compound 0.0316 µM
# [14] = second compound 0.316 µM, first compound 0.1 µM
# [15] = second compound 0.316 µM, first compound 0.316 µM
# [16] = second compound 0.316 µM, first compound 1 µM
# [17] = second compound 0.316 µM, first compound 3.16 µM
# [18] = second compound 0.316 µM, first compound 10 µM
# [19] = second compound 1 µM, first compound 0.0316 µM
# [20] = second compound 1 µM, first compound 0.1 µM
# [21] = second compound 1 µM, first compound 0.316 µM
# [22] = second compound 1 µM, first compound 1 µM
# [23] = second compound 1 µM, first compound 3.16 µM
# [24] = second compound 1 µM, first compound 10 µM
# [25] = second compound 3.16 µM, first compound 0.0316 µM
# [26] = second compound 3.16 µM, first compound 0.1 µM
# [27] = second compound 3.16 µM, first compound 0.316 µM
# [28] = second compound 3.16 µM, first compound 1 µM
# [29] = second compound 3.16 µM, first compound 3.16 µM
# [30] = second compound 3.16 µM, first compound 10 µM
# [31] = second compound 10 µM, first compound 0.0316 µM
# [32] = second compound 10 µM, first compound 0.1 µM
# [33] = second compound 10 µM, first compound 0.316 µM
# [34] = second compound 10 µM, first compound 1 µM
# [35] = second compound 10 µM, first compound 3.16 µM
# [36] = second compound 10 µM, first compound 10 µM
# 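Further: spheroids exposed to compounds for seven days.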
# 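Wherever viability, T/C is given: 100% = DMSO vehicle control viability.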
smiles,measurement,setting,value
CNCc1ccc(-c2[nH]c3cc(F)cc4c3c2CCNC4=O)cc1 + Cc1cccc(N(C)C(=O)C2C(O)CCN2c2nc(C)cc(C(F)(F)F)c2C#N)c1,IC50,second compound 0.0316 µM,> 10 µM
same,IC50,second compound 0.1 µM,> 10 µM
same,IC50,second compound 0.316 µM,> 10 µM
same,IC50,second compound 1 µM,> 10 µM
same,IC50,second compound 3.16 µM,> 10 µM
same,IC50,second compound 10 µM,> 10 µM
same,"viability, T/C",[1],110%
same,"viability, T/C",[2],106%
same,"viability, T/C",[3],83.5%
same,"viability, T/C",[4],92.7%
same,"viability, T/C",[5],101%
same,"viability, T/C",[6],58.3%
same,"viability, T/C",[7],91.9%
same,"viability, T/C",[8],87%
same,"viability, T/C",[9],95.9%
same,"viability, T/C",[10],91.7%
same,"viability, T/C",[11],85.4%
same,"viability, T/C",[12],78.5%
same,"viability, T/C",[13],92.8%
same,"viability, T/C",[14],89.4%
same,"viability, T/C",[15],109%
same,"viability, T/C",[16],110%
same,"viability, T/C",[17],126%
same,"viability, T/C",[18],79.9%
same,"viability, T/C",[19],82.3%
same,"viability, T/C",[20],120%
same,"viability, T/C",[21],104%
same,"viability, T/C",[22],119%
same,"viability, T/C",[23],113%
same,"viability, T/C",[24],70.7%
same,"viability, T/C",[25],102%
same,"viability, T/C",[26],99%
same,"viability, T/C",[27],110%
same,"viability, T/C",[28],89.2%
same,"viability, T/C",[29],96.6%
same,"viability, T/C",[30],63.9%
same,"viability, T/C",[31],73.7%
same,"viability, T/C",[32],81.2%
same,"viability, T/C",[33],88.4%
same,"viability, T/C",[34],94.4%
same,"viability, T/C",[35],78.5%
same,"viability, T/C",[36],57.2%
Nc1ccn(C2OC(CO)C(O)C2(F)F)c(=O)n1 (stereo not drawn) + Cc1cccc(N(C)C(=O)C2C(O)CCN2c2nc(C)cc(C(F)(F)F)c2C#N)c1,IC50,second compound 0.0316 µM,0.177 µM
same,IC50,second compound 0.1 µM,0.138 µM
same,IC50,second compound 0.316 µM,0.14 µM
same,IC50,second compound 1 µM,0.33 µM
same,IC50,second compound 3.16 µM,0.213 µM
same,IC50,second compound 10 µM,0.0991 µM
same,"viability, T/C",[1],67.7%
same,"viability, T/C",[2],49.5%
same,"viability, T/C",[3],48.8%
same,"viability, T/C",[4],40.5%
same,"viability, T/C",[5],40.4%
same,"viability, T/C",[6],31.4%
same,"viability, T/C",[7],59%
same,"viability, T/C",[8],53.9%
same,"viability, T/C",[9],44.5%
same,"viability, T/C",[10],39.1%
same,"viability, T/C",[11],44%
same,"viability, T/C",[12],36.3%
same,"viability, T/C",[13],55.6%
same,"viability, T/C",[14],50.4%
same,"viability, T/C",[15],46%
same,"viability, T/C",[16],45%
same,"viability, T/C",[17],39.1%
same,"viability, T/C",[18],34%
same,"viability, T/C",[19],58.3%
same,"viability, T/C",[20],57.9%
same,"viability, T/C",[21],49.2%
same,"viability, T/C",[22],43.9%
same,"viability, T/C",[23],38.7%
same,"viability, T/C",[24],32.5%
same,"viability, T/C",[25],54.7%
same,"viability, T/C",[26],54.7%
same,"viability, T/C",[27],47.7%
same,"viability, T/C",[28],43.7%
same,"viability, T/C",[29],37.5%
same,"viability, T/C",[30],31.7%
same,"viability, T/C",[31],69.2%
same,"viability, T/C",[32],49%
same,"viability, T/C",[33],43.9%
same,"viability, T/C",[34],43.8%
same,"viability, T/C",[35],46.6%
same,"viability, T/C",[36],34%
O=C(c1cc(Cc2n[nH]c(=O)c3ccccc23)ccc1F)N1CCN(C(=O)C2CC2)CC1 + Cc1cccc(N(C)C(=O)C2C(O)CCN2c2nc(C)cc(C(F)(F)F)c2C#N)c1,IC50,second compound 0.0316 µM,> 10 µM
same,IC50,second compound 0.1 µM,> 10 µM
same,IC50,second compound 0.316 µM,> 10 µM
same,IC50,second compound 1 µM,> 10 µM
same,IC50,second compound 3.16 µM,> 10 µM
same,IC50,second compound 10 µM,> 10 µM
same,"viability, T/C",[1],103%
same,"viability, T/C",[2],99.7%
same,"viability, T/C",[3],108%
same,"viability, T/C",[4],83.3%
same,"viability, T/C",[5],70.1%
same,"viability, T/C",[6],65%
same,"viability, T/C",[7],106%
same,"viability, T/C",[8],116%
same,"viability, T/C",[9],95%
same,"viability, T/C",[10],98.2%
same,"viability, T/C",[11],87.9%
same,"viability, T/C",[12],63.6%
same,"viability, T/C",[13],92.2%
same,"viability, T/C",[14],98.8%
same,"viability, T/C",[15],97.5%
same,"viability, T/C",[16],80.8%
same,"viability, T/C",[17],72%
same,"viability, T/C",[18],64.3%
same,"viability, T/C",[19],105%
same,"viability, T/C",[20],98.5%
same,"viability, T/C",[21],84.7%
same,"viability, T/C",[22],77.3%
same,"viability, T/C",[23],88.5%
same,"viability, T/C",[24],68.5%
same,"viability, T/C",[25],91.3%
same,"viability, T/C",[26],91.7%
same,"viability, T/C",[27],88.8%
same,"viability, T/C",[28],81.5%
same,"viability, T/C",[29],73.7%
same,"viability, T/C",[30],52.9%
same,"viability, T/C",[31],81.8%
same,"viability, T/C",[32],81.3%
same,"viability, T/C",[33],68.7%
same,"viability, T/C",[34],85.8%
same,"viability, T/C",[35],70.1%
same,"viability, T/C",[36],52.4%
O=c1[nH]cc(F)c(=O)[nH]1 + Cc1cccc(N(C)C(=O)C2C(O)CCN2c2nc(C)cc(C(F)(F)F)c2C#N)c1,IC50,second compound 0.0316 µM,> 10 µM
same,IC50,second compound 0.1 µM,> 10 µM
same,IC50,second compound 0.316 µM,> 10 µM
same,IC50,second compound 1 µM,> 10 µM
same,IC50,second compound 3.16 µM,> 10 µM
same,IC50,second compound 10 µM,> 10 µM
same,"viability, T/C",[1],96%
same,"viability, T/C",[2],85.2%
same,"viability, T/C",[3],81.1%
same,"viability, T/C",[4],94%
same,"viability, T/C",[5],63.6%
same,"viability, T/C",[6],61%
same,"viability, T/C",[7],102%
same,"viability, T/C",[8],84.3%
same,"viability, T/C",[9],75.9%
same,"viability, T/C",[10],54.4%
same,"viability, T/C",[11],63.7%
same,"viability, T/C",[12],65.1%
same,"viability, T/C",[13],109%
same,"viability, T/C",[14],99.3%
same,"viability, T/C",[15],73.6%
same,"viability, T/C",[16],71.3%
same,"viability, T/C",[17],79.1%
same,"viability, T/C",[18],77.7%
same,"viability, T/C",[19],93.4%
same,"viability, T/C",[20],93.2%
same,"viability, T/C",[21],74.3%
same,"viability, T/C",[22],72%
same,"viability, T/C",[23],71.8%
same,"viability, T/C",[24],73.1%
same,"viability, T/C",[25],80.8%
same,"viability, T/C",[26],87.6%
same,"viability, T/C",[27],80.3%
same,"viability, T/C",[28],88.9%
same,"viability, T/C",[29],83%
same,"viability, T/C",[30],65.9%
same,"viability, T/C",[31],71%
same,"viability, T/C",[32],79.9%
same,"viability, T/C",[33],83.3%
same,"viability, T/C",[34],64.1%
same,"viability, T/C",[35],70.3%
same,"viability, T/C",[36],65%

# Reference: PubChem BioAssay AID1963831 (Molecular Pharmacology Branch, DTP, NCI, 2024)
